Measured values reported in publication PMC6270814, “Effects of Ursolic Acid Derivatives on Caco-2 Cells and Their Alleviating Role in Streptozocin-Induced Type 2 Diabetic Rats” (Molecules, 2014).

Assays:
Caco-2 cells [1] = assay: MTT cytotoxicity assay on Caco-2 cells; type: cell-based, Human; conditions: Homo sapiens, 24 h, mean ± SD, n = 4, read-out: Inhibition Rate %
Protocol: Human intestinal Caco-2 cells (ATCC, Rockville, MD, USA) were incubated at 37 °C in a humidified atmosphere of 5% CO2 in air. The cells were cultured in Dulbecco’s […] medium (DMEM) with 10% heat-inactivated fetal bovine serum, 1% non-essential amino acids, 1% L-glutamine, 1% penicillin/streptomycin (Gibco Life Technologies, Grand Island, NY, USA). The cells were sub-cultured at confluence by 0.05% trypsin-0.5 mM EDTA treatment before they were applied in the experiment.
A MTT test was conducted to determine the possible toxicity of UA and its derivatives to Caco-2 cells. Briefly, cells were seeded at a density of 1 × 10^4 cells/mL in a 96-well plate and incubated for 24 h. The next day, cells were incubated with vehicle (0.1% DMSO) and compounds at 100, 50, 25, 12.5 μmol/L for 24 h, and then 5 g/L MTT solution (20 μL) was added for 4 h. Absorbance at 570 nm was measured using a Multimodel Plate Reader (Infinite 200, Tecan, Mannedorf, Switzerland).

Caco-2 cells [2] = assay: 2-NBDG glucose uptake by Caco-2 cell monolayers, Na+-independent (sodium free buffer); type: cell-based, Human; conditions: 100 μM compound, Na+-independent (KCl/K2HPO4 buffer)
Protocol: Caco-2 cells, which were derived from human colon adenocarcinoma, were selected for intestinal absorption studies because these cells express the morphological characteristics and most of the functional properties of differentiated small-intestinal enterocytes. Caco-2 cells were seeded on 24-well plates at the density of 2 × 10^5 cells/well. The medium was changed every 1–2 days, and the culture was carried out for 13 days. Then Caco-2 cells were placed in serum-free media for 24 h and then they were washed twice with Hanks’ balanced salt solution (HBSS, pH 7.5, 140 mM NaCl, 5 mM KCl, 1.2 mM Na2HPO4, 2 mM CaCl2, 1.2 mM MgSO4, 20 mM HEPES, 0.2% bovine serum albumin) before the uptake studies. When a sodium free buffer was required, NaCl and Na2HPO4 were replaced with equal amounts of KCl and K2HPO4, respectively. After washing, the cells were incubated for 15 min at room temperature in HBSS before the commencement of this experiment. The uptake studies were initiated by adding HBSS containing either control or test solution (100 μM) and […] (100 μM) for 30 min at 37 °C. Glucose uptake was stopped by adding twofold volume of ice-cold PBS and the wells were washed with ice-cold PBS three times. Fluorescent intensity was measured by a Multimodel Plate Reader (Tecan Infinity 200) with the 485 nmex and 535 nmemiss filter set before and after adding 2-NBDG. Then the cells were lysed in 200 μL lysis buffer (10 mM Tris-HCl pH = 7.4, 150 mM NaCl, 1% Triton-x-100, 1 mM EDTA, 0.1% SDS) and supplemented immediately before they were processed with 10 μg/mL PMSF. Cells were allowed to lyse on ice, and then vortexed and sonicated. The lysate was used for protein determination, protein concentrations were determined as described by BCA kit (Boster, Wuhan, China) with bovine serum albumin as standard.

Question: How did the inhibition at 100 µM (Caco-2 cells [1]) turn out when `CCC(=O)O[C@H]1CC[C@@]2(C)C(CC[C@]3(C)C2CC=C2C4[C@@H](C)[C@H](C)CC[C@]4(C(=O)O)CC[C@]23C)C1(C)C` (some centres unmarked) [Compound 10] was run?
Answer: 7.84 ± 4.15%

Question: And the “glucose uptake, % of the control value (Na+-independent)” value (Caco-2 cells [2])?
Answer: 70 % of the control value
